Common to all, as to assay: relative viability (nuclei count vs DMSO), 5 days (fraction); higher = more cells survive
Compound in the experiment “Trametinib + Navitoclax”: CC(=O)Nc1cccc(-n2c(=O)n(C3CC3)c(=O)c3c(Nc4ccc(I)cc4F)n(C)c(=O)c(C)c32)c1 [Trametinib] + CC1(C)CCC(c2ccc(Cl)cc2)=C(CN2CCN(c3ccc(C(=O)NS(=O)(=O)c4ccc(N[C@H](CCN5CCOCC5)CSc5ccccc5)c(S(=O)(=O)C(F)(F)F)c4)cc3)CC2)C1 [Navitoclax] (partner 0.5 µM)
A digest of the protocol:
(§1)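 Relative viability divides the nuclei count in treated wells by that in vehicle wells. Lung cancer cell lines were seeded in 1536-well plates, dosed by pin tool the next day, and fixed and stained after 5 days in one step with final 0.05% Triton X-100, 1% formaldehyde and 1 ug/ml Hoechst. Dosing was a single drug or a fixed anchor-drug dose plus five library-drug doses (not always all listed) in √10 steps, and values are medians of duplicate plates imaged at 4×.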

Compound in the experiment “Trametinib + OSI-027”: CC(=O)Nc1cccc(-n2c(=O)n(C3CC3)c(=O)c3c(Nc4ccc(I)cc4F)n(C)c(=O)c(C)c32)c1 [Trametinib] + COc1cccc2cc(-c3nc([C@H]4CC[C@H](C(=O)O)CC4)n4ncnc(N)c34)[nH]c12 [OSI-027] (partner 0.5 µM)
A digest of the protocol: as §1

Compound in the experiment “Trametinib + Pictilisib”: CC(=O)Nc1cccc(-n2c(=O)n(C3CC3)c(=O)c3c(Nc4ccc(I)cc4F)n(C)c(=O)c(C)c32)c1 [Trametinib] + CS(=O)(=O)N1CCN(Cc2cc3nc(-c4cccc5[nH]ncc45)nc(N4CCOCC4)c3s2)CC1 [Pictilisib] (partner 1 µM)
A digest of the protocol:
as §1

Compound in experiment [1]: CN1C=C(C2=CC=CC=C21)/C=C\3/C4=C(C=CC=N4)NC3=O + CC(C)C[C@H](NC(=O)[C@H](Cc1ccccc1)NC(=O)c1cnccn1)B(O)O [Bortezomib] (partner 0.002 µM)
A digest of the protocol:
as §1

With UMC-11, the relative viability in the experiment with Trametinib + Navitoclax (first compound 0.0025 µM) is 0.305; in the experiment with Trametinib + Navitoclax (first compound 0.007906 µM), 0.32; with Trametinib + Navitoclax (first compound 0.025 µM), 0.288; with Trametinib + Navitoclax (first compound 0.07906 µM), 0.266; with Trametinib + Navitoclax (first compound 0.25 µM), 0.263; in the experiment with Trametinib + OSI-027 (first compound 0.0025 µM), 0.478. Also, the relative viability in the experiment with Trametinib + OSI-027 (first compound 0.007906 µM) is 0.403; with Trametinib + OSI-027 (first compound 0.025 µM) it was 0.291; with Trametinib + OSI-027 (first compound 0.07906 µM), 0.414; in the experiment with Trametinib + OSI-027 (first compound 0.25 µM) it was 0.406; in the experiment with Trametinib + Pictilisib (first compound 0.0025 µM) it was 0.662; with Trametinib + Pictilisib (first compound 0.007906 µM) it was 0.785. Also, the relative viability with Trametinib + Pictilisib (first compound 0.025 µM) was 0.297; in the experiment with Trametinib + Pictilisib (first compound 0.07906 µM) it was 0.709; with Trametinib + Pictilisib (first compound 0.25 µM), 0.663; in experiment [1] (first compound 0.02 µM), 0.668; in experiment [1] (first compound 0.06325 µM) it was 0.263; in experiment [1] (first compound 0.2 µM) it was 0.572. Besides, the relative viability in experiment [1] (first compound 0.6325 µM) came to 0.761; in experiment [1] (first compound 2 µM) it was 0.926.

These data come from the supplement of paper PMC10307832.
